Measured values taken from ChEMBL document CHEMBL1133809, “Synthesis of N-propargylphenelzine and analogues as neuroprotective agents” (Bioorg Med Chem Lett, 2001).

Tests used:
[1] = target: T1, Amine oxidase [flavin-containing] B (Rattus norvegicus, UniProt P19643); experiment: In vitro ability to inhibit Monoamine oxidase B activity in rat whole brain in vitro
T1 sequence (P19643 whole entry): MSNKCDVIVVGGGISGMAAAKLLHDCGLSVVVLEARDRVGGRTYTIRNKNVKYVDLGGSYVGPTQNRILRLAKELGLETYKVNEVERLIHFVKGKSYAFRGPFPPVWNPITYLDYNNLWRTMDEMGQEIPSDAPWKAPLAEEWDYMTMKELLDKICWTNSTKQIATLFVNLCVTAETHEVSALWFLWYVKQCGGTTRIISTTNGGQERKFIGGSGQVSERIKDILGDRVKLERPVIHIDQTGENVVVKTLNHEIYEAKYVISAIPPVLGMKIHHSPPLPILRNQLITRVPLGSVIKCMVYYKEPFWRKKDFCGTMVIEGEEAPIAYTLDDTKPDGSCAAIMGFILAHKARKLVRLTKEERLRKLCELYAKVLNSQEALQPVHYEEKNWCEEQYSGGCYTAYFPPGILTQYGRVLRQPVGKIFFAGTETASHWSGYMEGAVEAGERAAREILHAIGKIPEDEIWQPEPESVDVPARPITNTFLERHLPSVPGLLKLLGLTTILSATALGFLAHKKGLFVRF

[2] = target: T2, Amine oxidase [flavin-containing] A (Rattus norvegicus, UniProt P21396); experiment: In vitro ability to inhibit Monoamine oxidase A activity in rat whole brain in vitro
T2 sequence (P21396 whole entry): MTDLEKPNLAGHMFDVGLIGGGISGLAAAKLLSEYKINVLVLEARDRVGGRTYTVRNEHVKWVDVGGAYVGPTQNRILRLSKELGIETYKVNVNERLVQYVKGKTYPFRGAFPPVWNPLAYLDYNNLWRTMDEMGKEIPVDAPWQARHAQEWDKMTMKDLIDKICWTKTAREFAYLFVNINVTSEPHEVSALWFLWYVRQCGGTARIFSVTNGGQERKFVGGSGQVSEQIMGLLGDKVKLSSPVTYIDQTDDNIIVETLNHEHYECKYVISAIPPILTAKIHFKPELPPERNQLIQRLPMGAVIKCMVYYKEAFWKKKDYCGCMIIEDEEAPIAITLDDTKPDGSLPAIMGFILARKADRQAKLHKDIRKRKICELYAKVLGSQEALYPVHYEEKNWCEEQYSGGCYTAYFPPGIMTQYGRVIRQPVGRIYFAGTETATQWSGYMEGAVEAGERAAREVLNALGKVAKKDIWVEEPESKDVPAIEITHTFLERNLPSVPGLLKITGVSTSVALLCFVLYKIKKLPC

Mus musculus = species on record: Mus musculus; experiment: Compound tested for the prevention of DSP- 4- induced depletion of noradrenaline (NA) in mouse hippocampus ex vivo; assay type: functional

SMILES | IC50 [1] | IC50 [2] | NA restoration (Mus musculus)
C#CCNNC/C=C/c1ccccc1 | 10.2 µM | 7.9 µM | -7.21%
C#CCN(N)c1ccccc1 | 1.01 µM | 11.3 µM | -49.82%
C#CCN(N)C/C=C/c1ccccc1 | 3.53 µM | 1.17 µM | -39.2%
C#CCNNCc1ccccc1 | 2.84 µM | 0.362 µM | 31.74%
C#CCN(N)CCc1ccccc1 | 0.0765 µM | 2.04 µM | 56.38%
C#CCNNCCc1ccccc1 | 3.18 µM | 1.85 µM | 76.83%
C#CCN(N)Cc1ccccc1 | 0.121 µM | 1.56 µM | 33.58%
NNCCc1ccccc1 [PHENELZINE] | 0.0763 µM | 0.03 µM | 43.48%
C#CCN(C)[C@H](C)Cc1ccccc1 [SELEGILINE] | – | – | 79.71%
